Laboratory results from EP0103381B1, “Substituted anthra(1,9-cd)pyrazol-6(2H)-ones” (WARNER-LAMBERT COMPANY, priority 1982, dated 1984).

Key:
[1] = system: lymphocytic leukemia P388; test: in vivo lymphocytic leukemia P388 test; parameters: species or system mice; settings: Mus musculus, P388, ip, 720 h, two single doses four days apart, read-out: T/C × 100 (Percent); for response vs control in vivo at 1.56 mg/kg: P388, Dose 1.56 mg/kg intraperitoneally; for response vs control in vivo at 6.25 mg/kg: P388, Dose 6.25 mg/kg intraperitoneally; for response vs control in vivo at 25 mg/kg: P388, Dose 25 mg/kg intraperitoneally; for response vs control in vivo at 3.12 mg/kg: P388, Dose 3.12 mg/kg intraperitoneally; for response vs control in vivo at 12.5 mg/kg: P388, Dose 12.5 mg/kg intraperitoneally
Procedure, shortened: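 Efficacy was judged from the treated/control survival-time ratio over 30 days (T/C×100 >125% as criterion). Mice (CD2F, 6–7/group) received i.p. P388 ascites cells, then compound i.p. at varied doses twice, four days apart.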

[2] = system: Penicillium avellaneum; test: agar plate paper-disc inhibition zone screening; format: cell-based; settings: Hamigera avellanea, read-out: Inhibition Zone Diameter mm (Dose mg/ml) P. Avellaneum; for zone of inhibition at 1000 µg/mL: Dose 1.0 mg/ml; for zone of inhibition at 3000 µg/mL: Dose 3.0 mg/ml
Procedure, shortened: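 Mycelia and spores from a six-day 28°C agar culture, suspended in saline with 0.05% Tween 80 at 20% transmittancy, were seeded into molten agar trays. Compounds at 3,000, 1,000, 500, 100 and 10 mcg/ml (solvent <10%) were applied on 12.7 mm paper discs. After at least 20-24 h incubation, inhibition zone diameter was measured in mm.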

[3] = system: HCT-8 (human colon adenocarcinoma) cells; test: in vitro activity against human colon adenocarcinoma (HCT-8), cell count; format: cell-based; settings: Homo sapiens; HCT-8 cells, 60-65 hrs with compound; molar quantity of drug required to kill 50% of the tumor cells; read-out: ID50 Molar
Method: HCT-8 (human colon adenocarcinoma) cells are trypsinized using Trypsin-EDTA. A single cell suspension is achieved by passing the cells through a 26 gauge needle with a 20 cc syringe. A cell suspension is prepared using RPMI 1640 growth medium (available from Gibco Laboratories) +10% fetal calf serum +50 µg/ml garamycin with a cell concentration of approximately 30,000 cells/ml. The cell suspension is dispensed in Linbro 24-well plates; 1 ml/well. The plates are incubated for approximately 48 hrs at 37°C in a 5% C02 atmosphere. At this time test compounds are added in the appropriate concentration. Five µl of the 200 µg/ml stock solution is added to each well in a primary test. Ten pl of the appropriate dilution is added to each well for a titration test. The plates are reincubated an additional 60-65 hrs at 37°C in a 5% C02 atmosphere. The test is read by lysing the cells using a mix of cationic surfactant, glacial acetic acid and sodium chloride. […] of the lysed cell suspension from each well is added to 8 ml of diluent. Each sample is read with a Coulter counter (ZBI model). The activity of each sample is measured as a percentage of the controls and the data is reported as ID50, that is the molar quantity of drug required to kill 50% of the tumor cells.

[4] = system: Escherichia coli; test: agar plate paper-disc inhibition zone screening; format: cell-based; settings: read-out: Inhibition Zone Diameter mm (Dose mg/ml) E. Coli; for zone of inhibition at 1000 µg/mL: Dose 1.0 mg/ml; for zone of inhibition at 3000 µg/mL: Dose 3.0 mg/ml; for zone of inhibition at 100 µg/mL: Dose 0.1 mg/ml; for zone of inhibition at 500 µg/mL: Dose 0.5 mg/ml
Procedure, shortened: (§1)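 Overnight bacterial cultures were suspended in 0.85% saline to 20-35% light transmittancy and mixed into molten assay agar poured in trays. Compounds at 3,000, 1,000, 500, 100 and 10 mcg/ml (solvent <10%) were applied to 12.7 mm paper discs; after 18-20 h at 37°C, inhibition zone diameters were measured in mm.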

[5] = system: Aerobacter aerogenes; test: agar plate paper-disc inhibition zone screening; format: cell-based; settings: Klebsiella aerogenes, read-out: Inhibition Zone Diameter mm (Dose mg/ml) A. Aerogenes; for zone of inhibition at 1000 µg/mL: Dose 1.0 mg/ml; for zone of inhibition at 500 µg/mL: Dose 0.5 mg/ml; for zone of inhibition at 100 µg/mL: Dose 0.1 mg/ml
Procedure, shortened: as §1

[6] = system: Streptococcus faecalis; test: agar plate paper-disc inhibition zone screening; format: cell-based; settings: Enterococcus faecalis, read-out: Inhibition Zone Diameter mm (Dose mg/ml) S. Faecalis; for zone of inhibition at 500 µg/mL: Dose 0.5 mg/ml; for zone of inhibition at 3000 µg/mL: Dose 3.0 mg/ml
Procedure, shortened: as §1

[7] = system: Bacillus subtilis; test: agar plate paper-disc inhibition zone screening; format: cell-based; settings: read-out: Inhibition Zone Diameter mm (Dose mg/ml) B. Subtilis; for zone of inhibition at 1000 µg/mL: Dose 1.0 mg/ml; for zone of inhibition at 100 µg/mL: Dose 0.1 mg/ml; for zone of inhibition at 500 µg/mL: Dose 0.5 mg/ml
Procedure, shortened: as §1

CCN(CC)CCn1nc2c3c(c(NCCN4CCOCC4)ccc31)C(=O)c1ccccc1-2 [Example 4]
response vs control in vivo at 100 mg/kg ([1]; P388, Dose 100 mg/kg intraperitoneally): 145%
response vs control in vivo at 400 mg/kg ([1]; P388, Dose 400 mg/kg intraperitoneally): 211%
zone of inhibition at 1000 µg/mL [2]: 14 mm
IC50 [3]: 120 nM
zone of inhibition at 1000 µg/mL [4]: 14 mm
zone of inhibition at 1000 µg/mL [5]: 15 mm
zone of inhibition at 500 µg/mL [6]: 14 mm
zone of inhibition at 1000 µg/mL [7]: 25 mm

CCN(CC)CCNc1ccc2c3c(nn2CCO)-c2ccccc2C(=O)c13 [Example 13, 5-[[2-(Diethylamino]ethyl]amino]-2-(2-hydroxyethyl)anthra[1,9-cd]pyrazol-6(2H)-one]
zone of inhibition at 3000 µg/mL [2]: 16 mm
IC50 [3]: 1800 nM
zone of inhibition at 1000 µg/mL [4]: 15 mm
zone of inhibition at 500 µg/mL [5]: 20 mm
zone of inhibition at 1000 µg/mL ([6]; Dose 1.0 mg/ml): 14 mm
zone of inhibition at 100 µg/mL [7]: 15 mm

CCN(CC)CCCNc1ccc2c3c(nn2CCO)-c2ccccc2C(=O)c13 [Example 15, 5-[[3-(Diethylamino)propyl]amino]-2-(2-hydroxyethyl)anthra[1,9-cd]pyrazol-6(2H)-one]
zone of inhibition at 3000 µg/mL [2]: 0 mm
IC50 [3]: 480 nM
zone of inhibition at 3000 µg/mL [4]: 0 mm
zone of inhibition at 1000 µg/mL [5]: 15 mm
zone of inhibition at 3000 µg/mL [6]: 14 mm
zone of inhibition at 1000 µg/mL [7]: 22 mm

O=C1c2ccccc2-c2n[nH]c3ccc(NCCNCCO)c1c23 [Example 19, 5-[[2-[(2-Hydroxyethyl)amino]ethyl]amino]anthra[1,9-cd]pyrazol-6-(2H)-one]
zone of inhibition at 3000 µg/mL [2]: 0 mm
IC50 [3]: 1500 nM
zone of inhibition at 3000 µg/mL [4]: 0 mm
zone of inhibition at 500 µg/mL [5]: 18 mm
zone of inhibition at 3000 µg/mL [6]: 17 mm
zone of inhibition at 500 µg/mL [7]: 19 mm

O=C1c2ccccc2-c2nn(CCNCCO)c3ccc(NCCNCCO)c1c23 [Example 21, 2-[2-[(2-Hydroxyethyl)amino]ethyl]-5-[[2-[(2-hydroxyethyl)amino]ethyl]amino]anthra[1,9-cd]pyrazol-6(2H)-one]
response vs control in vivo at 1.56 mg/kg [1]: 132%
response vs control in vivo at 6.25 mg/kg [1]: 147%
response vs control in vivo at 25 mg/kg [1]: 171%
response vs control in vivo at 50 mg/kg ([1]; P388, Dose 50 mg/kg intraperitoneally): 199%
zone of inhibition at 3000 µg/mL [2]: 0 mm
IC50 [3]: 960 nM
zone of inhibition at 3000 µg/mL [4]: 16 mm
zone of inhibition at 1000 µg/mL [5]: 14 mm
zone of inhibition at 3000 µg/mL [6]: 0 mm
zone of inhibition at 500 µg/mL [7]: 18 mm

NCCNc1ccc2c3c(nn2CCNCCO)-c2ccccc2C(=O)c13 [Example 22, 5-[(2-Aminoethyl)amino]-2-[2-[(2-hydroxyethyl)amino]ethyl]anthra[1,9-cd]pyrazol-6(2H)-one]
response vs control in vivo at 1.56 mg/kg [1]: 150%
response vs control in vivo at 3.12 mg/kg [1]: 162%
response vs control in vivo at 12.5 mg/kg [1]: 175%
response vs control in vivo at 25 mg/kg [1]: 189%
zone of inhibition at 3000 µg/mL [2]: 0 mm
IC50 [3]: 42 nM
zone of inhibition at 100 µg/mL [4]: 14 mm
zone of inhibition at 500 µg/mL [5]: 16 mm
zone of inhibition at 3000 µg/mL [6]: 0 mm
zone of inhibition at 100 µg/mL [7]: 15 mm

CCN(CC)CCNc1ccc2c3c(nn2CCNCCO)-c2ccccc2C(=O)c13 [Example 23, 5-[[2-(Diethylamino)ethyl]amino]-2-[2-[(2-hydroxyethyl)amino]ethyl]anthra[1,9-cd]pyrazol-6(2H)-one]
response vs control in vivo at 1.56 mg/kg [1]: 138%
response vs control in vivo at 3.12 mg/kg [1]: 143%
response vs control in vivo at 6.25 mg/kg [1]: 138%
response vs control in vivo at 12.5 mg/kg [1]: 150%
response vs control in vivo at 25 mg/kg [1]: 149%
zone of inhibition at 3000 µg/mL [2]: 16 mm
IC50 [3]: 120 nM
zone of inhibition at 100 µg/mL [4]: 14 mm
zone of inhibition at 500 µg/mL [5]: 18 mm
zone of inhibition at 500 µg/mL [6]: 15 mm
zone of inhibition at 100 µg/mL [7]: 14 mm

CN(C)CCNc1ccc2c3c(nn2CCNCCO)-c2ccccc2C(=O)c13 [Example 25, 2-[2-[(2-Hydroxyethyl)amino]ethyl]-5-[[2-(dimethylamino)ethyl]amino]anthra[1,9-cd]pyrazol-6(2H)-one]
response vs control in vivo at 3.12 mg/kg [1]: 158%
response vs control in vivo at 6.25 mg/kg [1]: 163%
response vs control in vivo at 12.5 mg/kg [1]: 166%
response vs control in vivo at 25 mg/kg [1]: 162%
zone of inhibition at 3000 µg/mL [2]: 0 mm
IC50 [3]: 230 nM
zone of inhibition at 1000 µg/mL [4]: 15 mm
zone of inhibition at 500 µg/mL [5]: 16 mm
zone of inhibition at 500 µg/mL [6]: 15 mm
zone of inhibition at 500 µg/mL [7]: 20 mm

CNc1ccc2c3c(nn2CCNCCO)-c2ccccc2C(=O)c13 [Example 26, 2-[2-[(2-Hydroxyethyl)amino]ethyl]-5-(methylamino)anthra[1,9-cd]pyrazol-6(2H)-one]
zone of inhibition at 3000 µg/mL [2]: 0 mm
IC50 [3]: 280 nM
zone of inhibition at 500 µg/mL [4]: 14 mm
zone of inhibition at 100 µg/mL [5]: 15 mm
zone of inhibition at 500 µg/mL [6]: 15 mm
zone of inhibition at 100 µg/mL [7]: 14 mm

NCCn1nc2c3c(c(NCCNCCO)ccc31)C(=O)c1ccccc1-2 [Example 27, 2-(2-Aminoethyl)-5-[[2-[(2-hydroxyethyl)amino]ethyl]amino]anthra[1,9-cd]pyrazol-6(2H)-one]
response vs control in vivo at 1.56 mg/kg [1]: 139%
response vs control in vivo at 3.12 mg/kg [1]: 149%
response vs control in vivo at 6.25 mg/kg [1]: 158%
response vs control in vivo at 12.5 mg/kg [1]: 173%
response vs control in vivo at 25 mg/kg [1]: 187%
zone of inhibition at 3000 µg/mL [2]: 0 mm
IC50 [3]: 68 nM
zone of inhibition at 500 µg/mL [4]: 14 mm
zone of inhibition at 100 µg/mL [5]: 17 mm
zone of inhibition at 3000 µg/mL [6]: 0 mm
zone of inhibition at 3000 µg/mL ([7]; Dose 3.0 mg/ml): 14 mm

CCN(CC)CCn1nc2c3c(cccc31)C(=O)c1c(NCCNCCO)cccc1-2 [Example 79, 2-[2-(Diethylamino)ethyl]-7-[[2-[(2-hydroxyethyl)amino]ethyl]amino]anthra[1,9-cd]pyrazol-6(2H)-one]
zone of inhibition at 3000 µg/mL [2]: 15 mm
IC50 [3]: 93 nM
zone of inhibition at 500 µg/mL [4]: 15 mm
zone of inhibition at 500 µg/mL [5]: 18 mm
zone of inhibition at 500 µg/mL [6]: 16 mm
zone of inhibition at 100 µg/mL [7]: 20 mm

CCN(CC)CCNc1cccc2c1C(=O)c1cccc3c1c-2nn3CCN(CC)CC [Example 80, 2-[2-(Diethylamino)ethyl]-7-[[2-(diethylamino)ethyi]amino]anthra[1,9-cd]pyrazol-6(2H)-one]
zone of inhibition at 1000 µg/mL [2]: 16 mm
IC50 [3]: 220 nM
zone of inhibition at 500 µg/mL [4]: 14 mm
zone of inhibition at 500 µg/mL [5]: 16 mm
zone of inhibition at 500 µg/mL [6]: 15 mm
zone of inhibition at 100 µg/mL [7]: 19 mm
